In test [1] the test system is c-Fos immunoreactivity in the dorsal medial habenula. The test can be described thus: cFos Staining. It counts as in vivo, C57/B16 mice. The conditions noted are these: oral. How it is done: Methods: After dosing C57/B16 mice for various time courses their brains were prepared for immunohistochemistry. […] Brains are extracted and placed in 4% paraformaldehyde for 3 hours, changed into 20% sucrose/PBS solution to avoid freezing artifacts, and frozen with dry ice. Frozen brain sections are obtained with sliding microtome at 20 um and washed in PBS (2 times for 10 minutes each). Endogenous peroxidase enzyme is blocked with 0.3% H2O2 solution in water for 10 minutes. Sections are rinsed in PBS (3 times for 10 minutes each) and incubated in primary antibody against cFos (Santa Cruz SC-42) at a dilution of 1:10,000 at 4° C. overnight in PBS+0.3% triton and 1% bovine serum albumin. Sections are subsequently rinsed in PBS (3 times for 10 minutes each) and incubated in secondary antibody: goat against rabbit-biotinylated antibody, at a dilution of 1:200 for 1 hour at room temperature in PBS+0.3% triton and 1% bovine serum albumin. Sections are rinsed in PBS (3 times for 10 minutes each) and incubated in ABC mix in PBS; ABC Elite Kit from Vector (PK-1000) for 1 hour at room temperature. Next, the sections are rinsed in PBS (3 times for 10 minutes each) and then in 0.1 M sodium acetate (3 times for 10 minutes each). Reaction is visualized with standard diaminobenzydine procedures: 50 mL of 0.1M sodium acetate containing 20 mg ammonium chloride, 20 mg, diaminobenzydine, 80 mg glucose and 10 mL of glucose oxidase. React for 10 minutes then the reaction is stopped with PBS rinses (3 times for 10 minutes each). cFos cells are then counted.

The target of test [2] is T1, human GPR139 receptor (Homo sapiens (Human), UniProt Q6DWJ6). Briefly: Activation of Calcium Signaling of GPR139 In Vitro Assay.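 Further: receptor expression induced with doxycycline, calcium fluorescence read continuously for one minute after compound addition, EC50 taken from a four-parameter logistic fit.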 It counts as cell-based. The conditions noted are these: stably transfected CHO-TRex cells, Calcium 5 dye, FLIPR Tetra.
Test [3] has as its target T1, human GPR139 receptor. The test can be described thus: GPR139 Competition Binding.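 Further: receptor expression induced with doxycycline before membrane preparation, bound radioactivity counted by scintillation, Ki fitted with a four-parameter logistic model.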 The conditions noted are these: stably transfected CHO-TRex membranes, 1 nM 3H radioligand; read-out: GPR139 Inhibition (Ki (nM)).

The record followed here is patent publication US9556130B2, “4-oxo-3,4-dihydro-1,2,3-benzotriazine modulators of GPR139” (Takeda Pharmaceutical Company Limited, priority 2014, dated 2017).

SMILES strings stand for the structures.

T1 sequence (Q6DWJ6 whole entry): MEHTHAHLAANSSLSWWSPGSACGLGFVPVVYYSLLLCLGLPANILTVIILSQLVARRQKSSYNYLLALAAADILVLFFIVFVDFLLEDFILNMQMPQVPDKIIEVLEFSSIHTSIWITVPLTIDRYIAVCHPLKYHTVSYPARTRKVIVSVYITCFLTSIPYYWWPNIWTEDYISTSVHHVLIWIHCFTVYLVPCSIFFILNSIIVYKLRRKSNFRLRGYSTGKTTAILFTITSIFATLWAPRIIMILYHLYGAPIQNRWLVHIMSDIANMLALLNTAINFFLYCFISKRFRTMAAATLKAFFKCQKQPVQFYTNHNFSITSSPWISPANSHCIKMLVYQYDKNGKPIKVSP

With `C[C@H](NC(=O)Cn1nnc2ccccc2c1=O)c1ccc(OC(F)(F)F)cc1` [Example 2, (S)-2-(4-oxobenzo[d][1,2,3]triazin-3(4H)-yl)-N-(1-(4-(trifluoromethoxy)phenyl)ethyl)acetamide], the “cFos cell count, Mean” value was found to be 1486 in test [1] (desensitization experiment, 0.1 mg/kg 1d); 1928 in test [1] (desensitization experiment, 0.1 mg/kg 5d); 1684 in test [1] (desensitization experiment, 0.1 mg/kg 10d); 1376 in test [1] (dose response curve experiment, 0.01 mg/kg); 986.3 in test [1] (dose response curve experiment, 0.03 mg/kg); 1381 in test [1] (dose response curve experiment, 0.1 mg/kg). For the same molecule, the “cFos cell count, Mean” value is 1408 in test [1] (dose response curve experiment, 0.3 mg/kg); 1368 in test [1] (dose response curve experiment, 1 mg/kg); 787.7 in test [1] (time course experiment, 0.1 mg/kg 1 hr); 1343 in test [1] (time course experiment, 0.3 mg/kg 1 hr); 1400 in test [1] (time course experiment, 0.3 mg/kg 2 hr); 2170 in test [1] (time course experiment, 0.3 mg/kg 4 hr). In addition, the “cFos cell count, Mean” value in test [1] (time course experiment, 3 mg/kg 1 hr) is recorded as 2365.
Take `COc1cccc2nnn(CC(=O)N[C@@H](C)c3ccc(C)cc3)c(=O)c12` [Example 3, (S)-2-(5-methoxy-4-oxobenzo[d][1,2,3]triazin-3(4H)-yl)-N-(1-p-tolylethyl)acetamide]: the “cFos cell count, Mean” value in test [1] (dose-response and time course experiment, 0.03 mg/kg 1 hr) was determined as 1628; in test [1] (dose-response and time course experiment, 0.1 mg/kg 1 hr), 2243; in test [1] (dose-response and time course experiment, 0.3 mg/kg 1 hr) it was 2458; in test [1] (dose-response and time course experiment, 0.3 mg/kg 2 hr), 2777; in test [1] (dose-response and time course experiment, 0.3 mg/kg 4 hr), 865; in test [1] (dose-response and time course experiment, 3 mg/kg 1 hr) it was 2023.
On to `COc1cccc2c(=O)n(CC(=O)N[C@@H](C)c3ccc(C(F)(F)F)cc3)nnc12` [Example 63, (S)-2-(8-methoxy-4-oxobenzo[d][1,2,3]triazin-3 (4H)-yl)-N-(1-(4-(trifluoromethyl)phenyl)ethyl)acetamide], for which the EC50 at human GPR139 receptor [2] was determined as 50 nM. The Ki on human GPR139 receptor [3] was 352 nM.
The like results for `C[C@H](NC(=O)Cn1nnc2ccc(F)cc2c1=O)c1ccc(C(F)(F)F)cc1` [Example 64, (S)-2-(6-fluoro-4-oxobenzo[d][1,2,3]triazin-3(4H)-yl)-N-(1-(4-(trifluoromethyl)phenyl)ethyl)acetamide] were, in that order, 13 nM and 106 nM.
With `C[C@H](NC(=O)Cn1nnc2ccc(F)cc2c1=O)c1ccc(OC(F)F)cc1` [Example 68, (S)—N-(1-(4-(difluoromethoxy)phenyl)ethyl)-2-(6-fluoro-4-oxobenzo[d][1,2,3]triazin-3(4H)-yl)acetamide], at human GPR139 receptor [2], the EC50 is 10 nM. Further, at human GPR139 receptor [3], the Ki was found to be 282 nM.
The like results for `CC[C@H](NC(=O)Cn1nnc2ccccc2c1=O)c1ccc(OC(F)(F)F)cc1` [Example 86, (S)-2-(4-oxobenzo[d][1,2,3]triazin-3(4H)-yl)-N-(1-(4-(trifluoromethoxy)phenyl)propyl)acetamide] were, in that order, 50 nM and 183 nM.
On the same counts, the results for `CC[C@H](NC(=O)Cn1nnc2ccccc2c1=O)c1ccc(C(F)(F)F)cc1` [Example 87, (S)-2-(4-oxobenzo[d][1,2,3]triazin-3 (4H)-yl)-N-(1-(4-(trifluoromethyl)phenyl)propyl)acetamide] are 31 nM and 214 nM.
